For the assay, the system named is aad-4 riboswitch RNA (aad-4 leader RNA) (RNA, riboswitch) GGAGCAGCAACGAUGUUACGCAGCAGGGCAGUCGCCCUAAACAAAGUUAGGCCGCAUGGACACAACGCAGGUCACAUUGAUACACCAAAUUCUAGCUGCGGCAGAUGAGCGAAAU
Nature of the assay: MicroScale Thermophoresis. The note with it: 100 mM KCl, 0.1 mM MgCl2, 10 mM HEPES pH 7.5, FTSC-labelled RNA.

Where [1] appears, read: only group range 1.2–3.9 µM given.

SMILES strings stand for the structures.

`CN[C@@H]1[C@@H](O)[C@@H](O[C@@H]2[C@@H](O)[C@H](O[C@H]3OC(CN)=CC[C@H]3N)[C@@H](N)C[C@H]2N)OC[C@]1(C)O`: the Kd under setting [1] came out at 2.16 ± 0.25 µM.

In turn, `NC[C@@H]1O[C@H](O[C@H]2[C@@H](O)[C@H](O[C@@H]3[C@@H](O)[C@H](N)C[C@H](N)[C@H]3O[C@H]3O[C@H](CO)[C@@H](O)[C@H](O)[C@H]3N)O[C@@H]2CO)[C@H](N)[C@@H](O)[C@@H]1O` registered a Kd of 10 µM.

In the case of `NC[C@H]1O[C@H](O[C@H]2[C@H](O)[C@@H](O)[C@H](N)C[C@@H]2N)[C@H](N)[C@@H](O)[C@@H]1O`, the Kd is reported as 12 µM.

Under setting [1], `NC[C@H]1O[C@H](O[C@H]2[C@H](O)[C@@H](O[C@H]3O[C@H](CO)[C@@H](O)[C@H](N)[C@H]3O)[C@H](N)C[C@@H]2N)[C@H](N)C[C@@H]1O` gave a Kd of 1.58 ± 0.28 µM.

The compound `NC[C@H]1O[C@H](O[C@H]2[C@H](O)[C@@H](O[C@H]3O[C@H](CO)[C@@H](O)[C@H](N)[C@H]3O)[C@H](N)C[C@@H]2N)[C@H](N)[C@@H](O)[C@@H]1O` displayed a Kd under setting [1] of 2.55 ± 0.24 µM. Against the preceding compound, the Kd is about 1.6-fold higher.

`NC[C@H]1O[C@H](O[C@H]2[C@H](O[C@@H]3O[C@H](CO)[C@@H](O)[C@H]3O)[C@@H](O)[C@H](N)C[C@@H]2N)[C@H](N)[C@@H](O)[C@@H]1O`: the Kd is 40 µM.

The values above are taken from PMC7588185 (2020).
